From patent US10912741B2, “Prevention of liver cancer with safranal-based formulations” (United Arab Emirates University, priority 2019, dated 2021) come the findings set out here.

Each structure is given as a SMILES string. Marks after values point to notes of the source that are not given here.

Experiment [1] has as its system DNA fragmentation (TUNEL-positive cells). Description: TUNEL assay of liver sections (apoptosis). Type of experiment: in vivo, albino Wistar rats. The method, then: (§1) The experimental hepatocarcinogenesis model was developed according to a protocol by Espandiaria et al. that was adapted for our purposes. To initiate and promote hepatocarcinogenesis, diethylnitrosamine (DEN) and 2-acetylaminofluorene (2-AAF) were used, respectively. For hepatocarcinogenesis initiation in this model, a single DEN dose (200 mg/kg b.wt.) dissolved in saline was injected intraperitoneally. After initiation, all rats underwent one period of 5-days fasting, as mitotic proliferative stimuli. To promote hepatocarcinogenesis, 2-acetylaminofluorene (2-AAF) was introduced in the form of six daily intragastric doses (30 mg/kg in 1% Tween 80); two weeks after DEN treatment.
Safranal at doses of 25 mg/kg by weight (b.wt.) and 50 mg/kg b.wt, was administrated orally to rats. These doses have been reported to suppress chemically-induced oxidative damage in rats. A total of 40 adult male albino Wistar rats were randomly divided into […] (n=8) and were subjected to different treatments. Group 1 (control) was orally administered distilled water (5 ml/kg b.wt.) throughout the experimental duration and were injected with a single dose of saline. […]
TUNEL assay was performed for the purpose of assessing apoptosis. […] DNA fragmentation, a key indicator of apoptosis, is detected using this kit. […]

Experiment [2] deals with ED-1 (macrophages). Nature of the experiment: Immunohistochemical staining of liver sections, ED-1 positive cells (macrophages). Type of experiment: in vivo, albino Wistar rats. As to conditions: mean±SEM, 8 rats. The procedure:
as §1
Safranal at doses of 25 mg/kg by weight (b.wt.) and 50 mg/kg b.wt, was administrated orally to rats. These doses have been reported to suppress chemically-induced oxidative damage in rats. A total of 40 adult male albino Wistar rats were randomly divided into […] (n=8) and were subjected to different treatments. Group 1 (control) was orally administered distilled water (5 ml/kg b.wt.) throughout the experimental duration and were injected with a single dose of saline. Group 2 (Safranal only) was subjected to a safranal dose (50 mg/kg b.wt.) through oral administration for the duration of the experimental period. Hepatocarcinogenesis was induced by DEN and promoted by 2-AAF, as reported previously, in group 3 (HCC). Rats in protective groups (groups 4-5) were treated with low/high doses of saffron-based safranal suspensions, at the beginning of promotion periods and continued for 12 weeks. The low dosage treatment with safranal consisted of 25 mg/kg b.wt., and the high dosage treatment consisted of 50 mg/kg b.wt. The experimental design is illustrated in FIG. 1.
For immunohistochemical staining, mounted sections were immersed in sodium citrate buffer (0.1 M, pH 6) and placed in a water bath for 15 minutes to unmask antigen epitopes. […] Ten fields were randomly selected to quantify positive cells, in individual samples (400×). […]

Turning to `CC1=C(C=O)C(C)(C)CC=C1` [Safranal, 2,6,6-trimethylcyclohexa-1,3-diene-1-carbaldehyde], the “number of TUNEL-positive cells” value in experiment [1] (low/high doses of safranal in animals exposed to DEN, compared to group 3) is “significant increase in the number of both TUNEL- and M30 CytoDeath-positive cells”; in experiment [1] (safranal only (group 2), compared to control group), “did not exhibit a notable change”. Moreover, the ED-1 positive cells is 49.84 ± 2.28^b positive cells/field in experiment [2] (HCC (DEN/2-AAF) rats + safranal high dose 50 mg/kg b.wt. oral, 12 weeks); 59.19 ± 2.0^a&b positive cells/field in experiment [2] (HCC (DEN/2-AAF) rats + safranal low dose 25 mg/kg b.wt. oral, 12 weeks); 44.33 ± 1.52 positive cells/field in experiment [2] (safranal alone 50 mg/kg b.wt. oral, no DEN (group 2)).
